Data on two molecules can be found in publication PMC8563733, “The transcriptional corepressor CtBP2 serves as a metabolite sensor orchestrating hepatic glucose and lipid homeostasis” (Nature Communications, 2021).

In experiment [1] the target is T1, CtBP2 (C-terminal binding protein 2) (Homo sapiens, UniProt P56545).
T1 construct: full-length CtBP2 with strep-tag and HA-tag tandemly fused to the C-terminus (baculovirus)
Kind of experiment: microscale thermophoresis; supported by DSF (Kd […]). For orientation: In MST a laser heats a spot of the sample, and binding alters the fluorescence response.

Experiment [2] deals with T1, CtBP2 (C-terminal binding protein 2). The description is as above. This is another data set of the same source.

Like-named read-outs stand apart in the source and are kept apart here.

By Kd is commonly meant a measure of binding affinity in units of concentration. The low end stands for higher affinity, the high end for lower affinity.

For `NC(=O)C1=CN([C@@H]2O[C@H](COP(=O)(O)OP(=O)(O)OC[C@H]3O[C@@H](n4cnc5c(N)ncnc54)[C@H](O)[C@@H]3O)[C@@H](O)[C@H]2O)C=CC1` [NADH], the Kd in experiment [1] is 19.5 ± 6.61 µM.
`CCCCCCCC/C=C\CCCCCCCC(=O)SCCNC(=O)CCNC(=O)[C@H](O)C(C)(C)COP(=O)(O)OP(=O)(O)OC[C@H]1O[C@@H](n2cnc3c(N)ncnc32)[C@H](O)[C@@H]1OP(=O)(O)O` [oleoyl-CoA]: binding in experiment [2] was put at a Kd of 18.8 ± 1.28 µM.
